{"source": "patent US9249076B2", "about": "“Recyclable extractant compositions” (BUTAMAX ADVANCED BIOFUELS LLC, priority 2012, dated 2016)", "key": {"[1]": {"assay": "Oil Stability Index (OSI), antioxidant activity in COFA, AOCS Cd 12b-92", "details": "110° C.", "protocol": "Antioxidants were added on a weight percent basis to quantities of Corn Oil Fatty Acids (CAS No. 8001-30-7) and allowed to dissolve. […] COFA samples containing undissolved antioxidants were thoroughly mixed before withdrawing samples for analysis, to ensure the samples contained the specified weight percent of antioxidant.\nSamples were run and the induction periods were determined according to AOCS method Cd 12b-92. All samples were tested at 110° C."}, "[2]": {"system": "yeast (e.g., Saccharomyces)", "details": "cited from earlier work"}, "[3]": {"system": "gram-negative and gram-positive bacteria (e.g., Lactobacillus)", "details": "cited from earlier work"}}, "note": "Where “and” joins values, the source holds several entries; their conditions need not be identical. Identical values can stand only once.", "data": [{"smiles": "O=C(O)c1cc(O)c(O)c(O)c1", "note": "[Gallic acid]", "values": [{"measurement": "Activity Index", "setting": "[1]; Crude COFA, dose 0.193 Wt %", "result": "1.70 and 1.25"}, {"measurement": "OSI", "setting": "[1]; Crude COFA, dose 0.193 Wt %", "result": "7.9 h and 5.8 h"}]}, {"smiles": "CCOc1ccc2c(c1)C(C)=CC(C)(C)N2", "note": "[Ethoxyquin]", "values": [{"measurement": "Activity Index", "setting": "[1]; Crude COFA, dose 0.2074 Wt %", "result": 0.67}, {"measurement": "OSI", "setting": "[1]; Crude COFA, dose 0.2074 Wt %", "result": 0.95, "unit": "h"}]}, {"smiles": "Cc1cc(C(C)(C)C)c(O)c(C(C)(C)C)c1", "note": "[BHT, butylated hydroxytoluene]", "values": [{"measurement": "Effect on yeast", "setting": "[2]", "result": "does not affect yeast"}, {"measurement": "Antimicrobial activity", "setting": "[3]", "result": "have antimicrobial activity"}, {"measurement": "Activity Index", "setting": "[1]; Crude COFA, dose 0.0200 Wt %", "result": 1.42}, {"measurement": "OSI", "setting": "[1]; Crude COFA, dose 0.0200 Wt %", "result": 1.85, "unit": "h"}, {"measurement": "Activity Index", "setting": "[1]; Crude COFA, dose 0.1998 Wt %", "result": 2.19}, {"measurement": "OSI", "setting": "[1]; Crude COFA, dose 0.1998 Wt %", "result": 2.85, "unit": "h"}, {"measurement": "Activity Index", "setting": "[1]; Crude COFA, dose 0.2020 Wt %", "result": 2.11}, {"measurement": "OSI", "setting": "[1]; Crude COFA, dose 0.2020 Wt %", "result": 3, "unit": "h"}, {"measurement": "Activity Index", "setting": "[1]; Crude COFA, dose 0.205 Wt %", "result": "2.43 and 2.72"}, {"measurement": "OSI", "setting": "[1]; Crude COFA, dose 0.205 Wt %", "result": "11.3 h and 12.65 h"}, {"measurement": "Activity Index", "setting": "[1]; Crude COFA, dose 0.2097 Wt %", "result": 2.07}, {"measurement": "OSI", "setting": "[1]; Crude COFA, dose 0.2097 Wt %", "result": 2.95, "unit": "h"}, {"measurement": "Activity Index", "setting": "[1]; Distilled COFA, dose 0.2 Wt %", "result": 17.63}, {"measurement": "OSI", "setting": "[1]; Distilled COFA, dose 0.2 Wt %", "result": 2.35, "unit": "h"}, {"measurement": "Activity Index", "setting": "[1]; Distilled COFA, dose 1.1 Wt %", "result": 52.50}, {"measurement": "OSI", "setting": "[1]; Distilled COFA, dose 1.1 Wt %", "result": 7, "unit": "h"}, {"measurement": "Activity Index", "setting": "[1]; Distilled COFA, dose 2 Wt %", "result": 66.00}, {"measurement": "OSI", "setting": "[1]; Distilled COFA, dose 2 Wt %", "result": 8.8, "unit": "h"}]}, {"smiles": "CC(C)(C)c1cc(O)ccc1O", "note": "[TBHQ, tertiary-butylhydroquinone]", "values": [{"measurement": "Activity Index", "setting": "[1]; Crude COFA, dose 0.0200 Wt %", "result": 1.35}, {"measurement": "OSI", "setting": "[1]; Crude COFA, dose 0.0200 Wt %", "result": 1.75, "unit": "h"}, {"measurement": "Activity Index", "setting": "[1]; Crude COFA, dose 0.2000 Wt %", "result": 2.81}, {"measurement": "OSI", "setting": "[1]; Crude COFA, dose 0.2000 Wt %", "result": 3.65, "unit": "h"}, {"measurement": "Activity Index", "setting": "[1]; Crude COFA, dose 0.2082 Wt %", "result": 2.60}, {"measurement": "OSI", "setting": "[1]; Crude COFA, dose 0.2082 Wt %", "result": 3.7, "unit": "h"}]}, {"smiles": "Cc1c(Cc2cc(C(C)(C)C)c(O)c(C(C)(C)C)c2)c(C)c(Cc2cc(C(C)(C)C)c(O)c(C(C)(C)C)c2)c(C)c1Cc1cc(C(C)(C)C)c(O)c(C(C)(C)C)c1", "note": "[Irganox 1330]", "values": [{"measurement": "Activity Index", "setting": "[1]; Crude COFA, dose 0.2046 Wt %", "result": 1.65}, {"measurement": "OSI", "setting": "[1]; Crude COFA, dose 0.2046 Wt %", "result": 2.35, "unit": "h"}]}, {"smiles": "Cc1c(C)c2c(c(C)c1O)CC[C@@](C)(CCC[C@H](C)CCC[C@H](C)CCCC(C)C)O2", "note": "[a-Tocopherol]", "values": [{"measurement": "Activity Index", "setting": "[1]; Distilled COFA, dose 0.2 Wt %", "result": 2.63}, {"measurement": "OSI", "setting": "[1]; Distilled COFA, dose 0.2 Wt %", "result": 0.35, "unit": "h"}, {"measurement": "Activity Index", "setting": "[1]; Distilled COFA, dose 1.1 Wt %", "result": 1.13}, {"measurement": "OSI", "setting": "[1]; Distilled COFA, dose 1.1 Wt %", "result": 0.15, "unit": "h"}, {"measurement": "Activity Index", "setting": "[1]; Distilled COFA, dose 2 Wt %", "result": 1.13}, {"measurement": "OSI", "setting": "[1]; Distilled COFA, dose 2 Wt %", "result": 0.15, "unit": "h"}]}, {"smiles": "CCCCCCCCCCCCCCCC(=O)OC[C@H](O)[C@H]1OC(=O)C(O)=C1O", "note": "[L-ascorbic acid 6-palmitate]", "values": [{"measurement": "OSI", "setting": "[1]; Crude COFA, dose 0.0100 Wt %", "result": 10.05, "unit": "h"}, {"measurement": "OSI", "setting": "[1]; Crude COFA, dose 0.0200 Wt %", "result": 4.1, "unit": "h"}, {"measurement": "OSI", "setting": "[1]; Crude COFA, dose 0.2000 Wt %", "result": "25.4 h and 29.8 h"}, {"measurement": "OSI", "setting": "[1]; Crude COFA, dose 0.2045 Wt %", "result": 26.4, "unit": "h"}]}, {"smiles": "c1ccc2c(c1)Nc1ccccc1S2", "note": "[Phenothiazine]", "values": [{"measurement": "Activity Index", "setting": "[1]; Crude COFA, dose 0.2034 Wt %", "result": 1.61}, {"measurement": "OSI", "setting": "[1]; Crude COFA, dose 0.2034 Wt %", "result": 2.3, "unit": "h"}]}]}
